In patent publication US20130274651A1, “SYSTEM AND METHOD FOR IMPROVING OUTCOME OF CEREBRAL ISCHEMIA” (priority 2012, published 2013):
Entries after “also recorded” stand apart in the source; their conditions may differ.

Legend:
[1] = Cerebral blood flow by cortical laser Doppler during intranasal nitric oxide in intubated rodents; type: in vivo
Method: (§1) In intubated rodents, the inventors have shown that cerebral blood flow increases by 100% within 60 minutes of intranasal nitric oxide delivery.

[2] = Carotid artery occlusion model, Speckle laser Doppler, intubated rodents; type: in vivo
Method: as §1
Increase in cerebral blood flow is attributable to focal intranasal or intra-oral effect of nitric oxide rather than to systemic absorption of the gas. […] The effect on cerebral blood flow during intranasal delivery of nitric oxide with concomitant air inhalation into the lungs is therefore a focal effect on intranasal and intracranial vasculature attributable specifically to nitric oxide. […] In a non-intubated patient, nitric oxide inhalation can be prevented by occluding the nasal cavity anterior or posterior to the site of gas delivery. This is achieved by means of an anterior occlusion device such a rigid member, an expandable member, a compressible member, a sponge, a porous member, a plug, a balloon, foam and/or combinations of the foregoing, which prevent inhalation through the nostrils while maintaining a high concentration of nitric oxide in the nasal cavity. A non-intubated patient may be allowed to inhale air into the lungs during nitric oxide delivery into the nasal cavity by an optional central lumen with the distal orifice beyond the sites of nasal gas delivery and occlusion device.

[3] = CT perfusion scanning in intubated patients with cerebral ischemia treated with intranasal non-inhaled nitric oxide; type: in vivo, human
[4] = Tolerability of intranasal delivery in humans (normal volunteers); type: in vivo, human; conditions: high concentration
Excerpt: While nitric oxide may be given intranasally and without inhalation into the lungs to intubated, comatose individuals the tolerability of intranasal nitric oxide in awake humans has not previously been investigated. The inventors have tested the effect of nitric oxide in humans (normal volunteers) during intranasal delivery. […] Therefore it can easily be tolerated by awake, non-intubated patients.

[N]=O [nitric oxide]
cerebral blood flow change (FIG. 8) ([1]; cortical laser Doppler, during intranasal administration): doubling of cerebral blood flow
cerebral blood flow increase ([1]; within 60 minutes of intranasal delivery): 100%
perfusion in the ischemic hemisphere ([2]; during carotid occlusion and following ligature release): perfusion is improved in the ischemic hemisphere
cerebral ischemia (FIG. 9) ([2]; intubated rodents, Speckle laser Doppler tracing): reduction of cerebral ischemia
Cerebral Blood Flow, Changes in ACA Watershed ([3]; Post Rx): Normalization,
Mean Transit Time, Changes in ACA Watershed ([3]; Post Rx): Normalization
Mean Transit Time, Left Hemisphere (ischemic) ([3]; Post Rx): 6.0 s
Mean Transit Time, Right Hemisphere (normal) ([3]; Post Rx): 6.1 s
Cerebral Blood Flow, increase in perfusion on L (ACA Watershed) ([3]; Post Rx vs Pre Rx, left ischemic hemisphere): 67% increase in
cerebral perfusion, CT perfusion scanning ([3]; intubated patients / human with focal cerebral ischemia, before vs after treatment): improvement in cerebral perfusion; also recorded: augmentation of cerebral perfusion and normalization of regional perfusion abnormalities
tolerability of intranasal delivery without inhalation [4]: tolerated at high concentration
